Measured values as given in patent US9187464B2, “TRPV4 antagonists” (GlaxoSmithKline Intellectual Property (No. 2) Limited, priority 2011, dated 2015).
pIC50: −log10 of the molar value.

Target: T1, human TRPV4 (Homo sapiens, UniProt Q9HBA0)
T1 construct: expressed in transfected cells; host or cells: HEK-293-MSR-II cells transduced with 1% BacMam virus
Assay: Ligand-gated assay (Fluo4 calcium, FLIPR; inhibition of agonist-induced activation)
Format: cell-based
Conditions: HEK-293-MSR-II cells transduced with BacMam human TRPV4; agonist at EC80
Experimental: TRP channel activation/opening results in an influx of divalent and monovalent cations including calcium. The resulting changes in intracellular calcium were monitored using a calcium selective fluorescent dye Fluo4 (MDS Analytical Technologies). Dye loaded cells were initially exposed to test compound to verify a lack of agonist activity. Cells were subsequently activated by addition of an agonist and inhibition of the agonist-induced activation was recorded. Human embryonic kidney 293 cells stably expressing the macrophage scavenger receptor class II (HEK-293-MSR-II) and transduced with 1% BacMam (J. P. Condreay, S. M. Witherspoon, W. C. Clay and T. A. Kost, Proc Natl Acad Sci 96 (1999), pp. 127-132) virus expressing the human TRPV4 gene were plated at 15000 cells/well in a volume of 50 μL in a 384 well poly-D lysine coated plate. Cells were incubated for 24 hours at 37 degrees and 5% CO2. Media was then aspirated using a Tecan Plate-washer and replaced with 20 μL of dye loading buffer: HBSS, 500 uM Brilliant Black (MDS Analytical Technologies), 2 uM Fluo-4. Dye loaded plates were then incubated in the dark at room temperature for 1-1.5 hours. 10 μL of test compound diluted in HBSS (HBSS with 1.5 mM Calcium Chloride, 1.5 mM Magnesium Chloride and 10 mM HEPES. pH 7.4), +0.01% Chaps was added to the plate, incubated for 10 min at room temperature in the dark and then 10 μL of agonist was added at a final concentration equal to the agonist EC80. Calcium release was measured using the FLIPRtetra (MDS Analytical Technologies) or FLIPR384 (MDS Analytical Technologies).
IC50 between 0.1-10 nM (+++), >10-50 nM (++), >50-500 nM (+).

T1 sequence (Q9HBA0 whole entry): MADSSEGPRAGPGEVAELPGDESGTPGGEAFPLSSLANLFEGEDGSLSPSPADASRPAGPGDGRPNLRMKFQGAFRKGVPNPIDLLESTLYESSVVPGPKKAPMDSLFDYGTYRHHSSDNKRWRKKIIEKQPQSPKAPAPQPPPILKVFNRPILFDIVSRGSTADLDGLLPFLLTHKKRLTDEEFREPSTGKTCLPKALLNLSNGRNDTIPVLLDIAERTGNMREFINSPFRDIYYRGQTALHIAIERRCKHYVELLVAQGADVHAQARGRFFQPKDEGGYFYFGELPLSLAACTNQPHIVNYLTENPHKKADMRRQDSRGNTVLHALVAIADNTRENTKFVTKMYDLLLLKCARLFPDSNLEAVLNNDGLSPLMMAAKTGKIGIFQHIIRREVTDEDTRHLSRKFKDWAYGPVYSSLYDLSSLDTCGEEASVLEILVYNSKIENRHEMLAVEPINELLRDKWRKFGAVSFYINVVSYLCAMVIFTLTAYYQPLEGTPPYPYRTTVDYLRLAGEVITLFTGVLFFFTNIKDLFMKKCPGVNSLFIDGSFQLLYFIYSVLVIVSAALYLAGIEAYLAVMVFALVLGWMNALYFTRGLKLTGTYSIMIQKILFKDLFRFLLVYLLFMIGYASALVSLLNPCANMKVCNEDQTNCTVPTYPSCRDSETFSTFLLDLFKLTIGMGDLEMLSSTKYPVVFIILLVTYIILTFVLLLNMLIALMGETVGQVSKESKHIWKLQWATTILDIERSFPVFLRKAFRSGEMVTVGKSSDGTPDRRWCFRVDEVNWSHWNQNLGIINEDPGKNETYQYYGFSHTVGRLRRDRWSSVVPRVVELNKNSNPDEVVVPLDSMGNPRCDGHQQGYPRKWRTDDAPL

| Compound | pIC50 |
| --- | --- |
| COC(C)(C)c1ccc(N2C[C@@]3(CCC[C@](C)(Cn4cnc5ccc(C#N)cc54)C3)OC2=O)cn1 [Example 55, 1-(((5S,7S)-3-(6-(2-methoxypropan-2-yl)pyridin-3-yl)-7-methyl-2-oxo-1-oxa-3-azaspiro[4.5]decan-7-yl)methyl)-1H-benzo[d]imidazole-6-carbonitrile] | 8.00 to 10.00 |
| COCCOC(C)(C)c1cnc(N2C[C@@]3(CCC[C@](C)(Cn4cnc5ccc(C#N)cc54)C3)OC2=O)cn1 [Example 163, 1-(((5S,7S)-3-(5-(2-(2-methoxyethoxy)propan-2-yl)pyrazin-2-yl)-7-methyl-2-oxo-1-oxa-3-azaspiro[4.5]decan-7-yl)methyl)-1H-benzo[d]imidazole-6-carbonitrile] | 8.00 to 10.00 |
| COc1cc(C)c(N2C[C@@]3(CCC[C@](CO)(Cn4cnc5ccc(C#N)cc54)C3)OC2=O)cn1 [Example 143, 1-((7-(hydroxymethyl)-3-(6-methoxy-4-methylpyridin-3-yl)-2-oxo-1-oxa-3-azaspiro[4.5]decan-7-yl)methyl)-1H-benzo[d]imidazole-6-carbonitrile] | 7.30 to 8.00 |
| Cc1cc(Cl)cnc1N1C[C@@]2(CCC[C@](C)(Cn3cnc4ccc(C#N)cc43)C2)OC1=O [Example 121, 1-(((5S,7S)-3-(5-chloro-3-methylpyridin-2-yl)-7-methyl-2-oxo-1-oxa-3-azaspiro[4.5]decan-7-yl)methyl)-1H-benzo[d]imidazole-6-carbonitrile] | 8.00 to 10.00 |
| Cc1noc(N2C[C@@]3(CCC[C@](C)(Cn4cnc5ccc(C#N)cc54)C3)OC2=O)c1C [Example 57, 1-(((5S,7S)-3-(3,4-Dimethylisoxazol-5-yl)-7-methyl-2-oxo-1-oxa-3-azaspiro[4.5]decan-7-yl)methyl)-1H-benzo[d]imidazole-6-carbonitrile] | 8.00 to 10.00 |
| CC(C)(C)c1cnc(N2C[C@@]3(CCC[C@](C)(Cn4cnc5ccc(C#N)cc54)C3)OC2=O)nc1 [Example 49, 1-(((5S,7S)-3-(5-(tert-butyl)pyrimidin-2-yl)-7-methyl-2-oxo-1-oxa-3-azaspiro[4.5]decan-7-yl)methyl)-1H-benzo[d]imidazole-6-carbonitrile] | 8.00 to 10.00 |
| CC(C)(C#N)c1cc(N2C[C@@]3(CCC[C@](C)(Cn4cnc5ccc(C#N)cc54)C3)OC2=O)on1 [Example 2] | 8.00 to 10.00 |
| CCOc1ncc(N2C[C@@]3(CCC[C@](C)(Cn4cnc5ccc(C#N)cc54)C3)OC2=O)cn1 [Example 113, 1-(((5S,7S)-3-(2-ethoxypyrimidin-5-yl)-7-methyl-2-oxo-1-oxa-3-azaspiro[4.5]decan-7-yl)methyl)-1H-benzo[d]imidazole-6-carbonitrile] | 7.30 to 8.00 |
| COC(C)(C)c1cnc(N2C[C@@]3(CCC[C@](C)(Cn4cnc5ccc(C#N)cc54)C3)OC2=O)cn1 [Example 162, 1-(((5S,7S)-3-(5-(2-methoxypropan-2-yl)pyrazin-2-yl)-7-methyl-2-oxo-1-oxa-3-azaspiro[4.5]decan-7-yl)methyl)-1H-benzo[d]imidazole-6-carbonitrile] | 8.00 to 10.00 |
| Cc1cc(N2CCOCC2)ncc1N1C[C@@]2(CCC[C@](C)(Cn3cnc4ccc(C#N)cc43)C2)OC1=O [Example 166, 1-(((5S,7S)-7-methyl-3-(4-methyl-6-morpholinopyridin-3-yl)-2-oxo-1-oxa-3-azaspiro[4.5]decan-7-yl)methyl)-1H-benzo[d]imidazole-6-carbonitrile] | 8.00 to 10.00 |
| CCc1cc(N2C[C@@]3(CCC[C@](C)(Cn4cnc5ccc(C#N)cc54)C3)OC2=O)on1 [Example 33, 1-{[(5S,7S)-3-(3-ethyl-5-isoxazolyl)-7-methyl-2-oxo-1-oxa-3-azaspiro[4.5]dec-7-yl]methyl}-1H-benzimidazole-6-carbonitrile] | 7.30 to 8.00 |
| COc1nc(C)ccc1N1C[C@@]2(CCC[C@](C)(Cn3cnc4ccc(C#N)cc43)C2)OC1=O [Example 126, 1-(((5S,7S)-3-(2-methoxy-6-methylpyridin-3-yl)-7-methyl-2-oxo-1-oxa-3-azaspiro[4.5]decan-7-yl)methyl)-1H-benzo[d]imidazole-6-carbonitrile] | 8.00 to 10.00 |
| CCOc1ccnc(CN2C[C@@]3(CCC[C@](C)(Cn4cnc5ccc(C#N)cc54)C3)OC2=O)c1 [Example 156, 1-(((5S,7S)-3-((4-ethoxypyridin-2-yl)methyl)-7-methyl-2-oxo-1-oxa-3-azaspiro[4.5]decan-7-yl)methyl)-1H-benzo[d]imidazole-6-carbonitrile] | 8.00 to 10.00 |

Second part, the compound after the results:

| pIC50 | Compound |
| --- | --- |
| 6.30 to 7.30 | N#Cc1ccc2ncn(C[C@H]3CCC[C@]4(C3)CN(Cc3nnc(-c5ccccc5)[nH]3)C(=O)O4)c2c1 [Example 71, 1-({(5S,7S)-2-oxo-3-[(3-phenyl-1H-1,2,4-triazol-5-yl)methyl]-1-oxa-3-azaspiro[4.5]dec-7-yl}methyl)-1H-benzimidazole-6-carbonitrile] |
| 8.00 to 10.00 | Cc1c(C(C)(C)C)noc1N1C[C@@]2(CCC[C@H](Cn3cnc4ccc(C#N)cc43)C2)OC1=O [Example 46, 1-(((5S,7S)-3-(3-(tert-butyl)-4-methylisoxazol-5-yl)-2-oxo-1-oxa-3-azaspiro[4.5]decan-7-yl)methyl)-1H-benzo[d]imidazole-6-carbonitrile] |
| 8.00 to 10.00 | N#Cc1ccc2ncn(C[C@H]3CCC[C@]4(C3)CN(Cc3cn(-c5ccc(C#N)c(C(F)(F)F)c5)nn3)C(=O)O4)c2c1 [Example 98, 1-{[(5S,7S)-3-({1-[4-cyano-3-(trifluoromethyl)phenyl]-1H-1,2,3-triazol-4-yl}methyl)-2-oxo-1-oxa-C azaspiro[4.5]dec-7-yl]methyl}-1H benzimidazole-6-carbonitrile] |
| 8.00 to 10.00 | CC(C)Cc1noc(C(C)(C)CN2C[C@@]3(CCC[C@H](Cn4cnc5ccc(C#N)cc54)C3)OC2=O)n1 [Example 82, 1-[((5S,7S)-3-{2-methyl-2-[3-(2-methylpropyl)-1,2,4-oxadiazol-5-yl]propyl}-2-oxo-1-oxa-3-azaspiro[4.5]dec-7-yl)methyl]-1H-benzimidazole-6-carbonitrile] |
| 8.00 to 10.00 | CC(C)(CN1C[C@@]2(CCC[C@H](Cn3cnc4ccc(C#N)cc43)C2)OC1=O)c1nc(-c2cncnc2)no1 [Example 78, 1-[((5S,7S)-3-{2-methyl-2-[3-(5-pyrimidinyl)-1,2,4-oxadiazol-5-yl]propyl}-2-oxo-1-oxa-3-azaspiro[4.5]dec-7-yl)methyl]-1H-benzimidazole-6-carbonitrile] |
| 6.30 to 7.30 | N#Cc1ccc2nc(C(F)(F)F)n(C[C@H]3CCC[C@]4(C3)CN(Cc3csc5ccc(Cl)cc35)C(=O)O4)c2c1 (stereo in doubt) [Example 60, 1-({3-[(5-chloro-1-benzothien-3-yl)methyl]-2-oxo-1-oxa-3-azaspiro[4.5]dec-7-yl}methyl)-2-(trifluoromethyl)-1H-benzimidazole-6-carbonitrile] |
| 8.00 to 10.00 | N#Cc1ccc2ncn(C[C@H]3CCC[C@]4(C3)CN(Cc3cn(-c5ccc(C(F)(F)F)cc5)nn3)C(=O)O4)c2c1 [Example 102, 1-{[(5S,7S)-2-oxo-3-({1-[4-(trifluoromethyl)phenyl]-1H-1,2,3-triazol-4-yl}methyl)-1-oxa-3-azaspiro[4.5]dec-7-yl]methyl}-1H-benzimidazole-6-carbonitrile] |
| 8.00 to 10.00 | CC(C)(C)c1noc(C(C)(C)CN2C[C@@]3(CCC[C@H](Cn4cnc5ccc(C#N)cc54)C3)OC2=O)n1 [Example 79, 1-[((5S,7S)-3-{2-[3-(1,1-dimethylethyl)-1,2,4-oxadiazol-5-yl]-2-methylpropyl}-2-oxo-1-oxa-3-azaspiro[4.5]dec-7-yl)methyl]-1H-benzimidazole-6-carbonitrile] |
| 7.30 to 8.00 | N#Cc1ccc2ncn(C[C@H]3CCC[C@]4(C3)CN(Cc3cn(-c5cccc(F)c5)nn3)C(=O)O4)c2c1 [Example 94, 1-[((5S,7S)-3-{[1-(3-fluorophenyl)-1H-1,2,3-triazol-4-yl]methyl}-2-oxo-1-oxa-3-azaspiro[4.5]dec-7-yl)methyl]-1H-benzimidazole-6-carbonitrile] |
| 7.30 to 8.00 | N#Cc1ccc2ncn(C[C@H]3CCC[C@]4(C3)CN(Cc3cn(-c5cc(F)cc(F)c5)nn3)C(=O)O4)c2c1 [Example 101, 1-[((5S,7S)-3-{[1-(3,5-difluorophenyl)-1H-1,2,3-triazol-4-yl]methyl}-2-oxo-1-oxa-3-azaspiro[4.5]dec-7-yl)methyl]-1H-benzimidazole-6-carbonitrile] |
| 8.00 to 10.00 | N#Cc1cc(F)cc(-n2cc(CN3CC4(CCC[C@H](Cn5cnc6ccc(C#N)cc65)C4)OC3=O)nn2)c1 (stereo in doubt) [Example 103, 1-[((5S,7S)-3-{[1-(3-cyano-5-fluorophenyl)-1H-1,2,3-triazol-4-yl]methyl}-2-oxo-1-oxa-3-azaspiro[4.5]dec-7-yl)methyl]-1H-benzimidazole-6-carbonitrile] |
| 8.00 to 10.00 | CCOc1ccc(CN2CC3(CCC[C@](C)(Cn4cnc5ccc(C#N)cc54)C3)OC2=O)nc1 (stereo in doubt) [Example 157, 1-(((5S,7S)-3-((5-ethoxypyridin-2-yl)methyl)-7-methyl-2-oxo-1-oxa-3-azaspiro[4.5]decan-7-yl)methyl)-1H-benzo[d]imidazole-6-carbonitrile] |
